In patent publication US9247759B2, “Identification of human T2R receptors that respond to bitter compounds that elicit the bitter taste in compositions, and the use thereof in assays to identify compounds that inhibit (block) bitter taste in compositions and use thereof” (SENOMYX, INC., priority 2007, dated 2016):
Read-outs that look alike come from different tables or passages of the source. Blank lines part the entries; values can stand above or below the molecule they belong to.

Key:
[1] = biological target: hT2R64 (Homo sapiens (Human), UniProt P59538); test: hT2R panel inhibition, transient HEK293 G16g44, agonist Aristolochic Acid 1 μM; assay type: cell-based; details: HEK293, compound at 25 μM
Protocol: (§1) Specifically, in order to evaluate the inhibitory selectivity of the Compound C compound, this compound was tested against 22 human T2Rs which were deorphaned by Senomyx. These receptors and the bitter ligands that activate these human T2Rs are reported in earlier patent applications which are incorporated by reference herein. These 22 human T2Rs are hT2R1, 3, 4, 5, 7, 8, 9, 10, 13, 14, 16, 44, 51, 54, 55, 61, 63, 64, 65, 67, 71 and 75. The amino acid and nucleic acid sequences of all of these T2Rs may be found in these earlier patent applications. These human T2Rs were each individually transiently transfected into HEK293 cells that stably express the promiscuous G protein G16g44 and functional assays were effected using these receptors as disclosed in these same patent applications. […] The ligands were used at EC80 concentration levels. The list of bitter ligands utilized and the tested ligand concentrations are contained in Table 5 of this example.
(§2) Relating to the foregoing, FIG. 5 contains experimental results wherein Compound C was tested with different agonist compounds. The inhibition activity is represented by the reduction of receptor activity in the presence of Compound C. […] These 13 hT2Rs are hT2R3, 7, 10, 14, 16, 44, 51, 55, 61, 63, 64, 65, and 71.

[2] = test system: hT2R63; test: hT2R panel inhibition, transient HEK293 G16g44, agonist Caffeine 1 mM or Andrographolide 100 μM; assay type: cell-based, human; details: compound at 25 μM; for screening result against bitter receptor 63: receptor activated to EC80 with the corresponding agonist
Protocol: as §1, §2

[3] = biological target: hT2R61 (Homo sapiens (Human), UniProt P59537); test: hT2R panel inhibition, transient HEK293 G16g44, agonist Aristolochic Acid 25 nM; assay type: cell-based; details: HEK293, compound at 25 μM
Protocol: as §1, §2

[4] = biological target: hT2R71 (Homo sapiens (Human), UniProt P59536); test: hT2R panel inhibition, transient HEK293 G16g44, agonist Picric Acid 10 μM; assay type: cell-based; details: HEK293, compound at 25 μM; receptor activated to EC80 with the corresponding agonist; read-out: screening result against bitter receptor 71
Protocol: as §1, §2

[5] = biological target: T1, hT2R14 (Homo sapiens (Human), UniProt Q9NYV8); test: hT2R14 antagonist high-throughput FLIPR assay, stable cell line with G16g44, agonist aristolochic acid; assay type: cell-based
Protocol: The inventors also used the automated fluorimetric […] system FLIPR using a slightly different protocol. A HEK293 cell line stably expressing G16gust44 was transfected with a hT2R expression plasmid, 24 hours later, the cells are loaded and analyzed on FLIPR.
After a ligand is identified for a particular hT2R, a HEK293 cell line stably expressing both the hT2R and G16gust44 are generated, facilitating future screening assays to identify other ligands that activate the particular hT2R or which modulate (block or enhance) the activation of this hT2R by another bitter ligand such as a bitter compound contained in coffee. This avoids the need for transient transfection.
To identify antagonists, cell lines stably expressing hT2R8 and hT2R14, respectively, together with the promiscuous chimeric G16g44 protein were generated as described in previous patent applications. A high-throughput assay was established using the stable cell lines and FLIPR (Fluorescent Imaging Plate Reader). An agonist of hT2R8 or hT2R14 was used to activate the receptors up to 70-80% of their respective maximal activity. For hT2R8, the agonist used was andrographolide (200 […]); for hT2R14, it was aristolochic acid (3 μM). To identify antagonists, compounds with diverse chemical structures were added together with the agonist.

[6] = biological target: T1, hT2R14; test: hT2R panel inhibition, transient HEK293 G16g44, agonist Aristolochic Acid 2 μM; assay type: cell-based; details: HEK293, compound at 25 μM; receptor activated to EC80 with agonist; read-out: inhibition of bitter receptor 14
Protocol: as §1

[7] = receptor activated to EC80 with the corresponding agonist, read-out: screening result against bitter receptor 64
[8] = receptor activated to EC80 with the corresponding agonist, read-out: screening result against bitter receptor 61

Sequence of hT2R61 (P59537 whole entry): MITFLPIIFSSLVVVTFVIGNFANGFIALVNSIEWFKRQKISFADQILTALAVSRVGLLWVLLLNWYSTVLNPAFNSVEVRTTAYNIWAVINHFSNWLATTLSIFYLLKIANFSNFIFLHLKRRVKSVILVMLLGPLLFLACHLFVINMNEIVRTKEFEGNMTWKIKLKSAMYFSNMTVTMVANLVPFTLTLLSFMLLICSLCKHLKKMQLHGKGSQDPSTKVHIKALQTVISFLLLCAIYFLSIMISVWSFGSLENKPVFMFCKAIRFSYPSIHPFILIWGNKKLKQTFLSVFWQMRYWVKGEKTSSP
Sequence of hT2R64 (P59538 whole entry): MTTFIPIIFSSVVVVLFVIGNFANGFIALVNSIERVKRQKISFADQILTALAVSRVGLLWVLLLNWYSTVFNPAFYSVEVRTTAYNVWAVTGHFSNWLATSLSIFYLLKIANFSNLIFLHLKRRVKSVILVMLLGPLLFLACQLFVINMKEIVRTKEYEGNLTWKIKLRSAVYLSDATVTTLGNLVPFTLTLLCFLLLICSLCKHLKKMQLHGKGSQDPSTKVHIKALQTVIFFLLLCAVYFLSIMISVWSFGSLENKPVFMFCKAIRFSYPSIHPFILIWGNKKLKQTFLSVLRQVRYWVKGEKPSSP
T1 sequence (Q9NYV8 whole entry): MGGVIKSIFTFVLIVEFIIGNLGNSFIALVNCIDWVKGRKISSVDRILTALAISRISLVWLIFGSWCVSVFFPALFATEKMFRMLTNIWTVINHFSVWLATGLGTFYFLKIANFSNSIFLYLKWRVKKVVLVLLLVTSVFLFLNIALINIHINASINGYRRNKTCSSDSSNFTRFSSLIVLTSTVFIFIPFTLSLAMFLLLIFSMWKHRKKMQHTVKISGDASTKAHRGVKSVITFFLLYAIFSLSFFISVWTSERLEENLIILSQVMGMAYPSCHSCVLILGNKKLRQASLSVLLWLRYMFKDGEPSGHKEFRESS
Sequence of hT2R71 (P59536 whole entry): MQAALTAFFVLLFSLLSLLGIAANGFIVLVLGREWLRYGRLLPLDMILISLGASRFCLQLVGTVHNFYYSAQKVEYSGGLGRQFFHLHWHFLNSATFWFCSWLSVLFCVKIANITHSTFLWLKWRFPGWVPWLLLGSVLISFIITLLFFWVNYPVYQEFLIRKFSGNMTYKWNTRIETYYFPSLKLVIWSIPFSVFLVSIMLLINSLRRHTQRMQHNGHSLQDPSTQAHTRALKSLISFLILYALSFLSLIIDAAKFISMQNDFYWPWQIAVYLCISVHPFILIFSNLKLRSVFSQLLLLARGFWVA

Compound: COc1ccc(CN(Cc2ccc(C(=O)O)cc2)S(=O)(=O)c2ccc(C(=O)O)cc2)cc1 [Example 5-38, 4-((4-carboxy-N-(4-methoxybenzyl)phenylsulfonamido)methyl)-benzoic acid]
- inhibition at 25 µM [1, 7]: 20 to 40%
- inhibition at 25 µM [3, 8]: > 80%
- inhibition at 25 µM [4]: 20 to 40%
- screening result against bitter receptor 63 [2]: ++++ (80% or greater inhibition = ++++)

Compound: COc1ccc(CN(Cc2ccccc2)S(=O)(=O)c2ccccc2C(=O)O)cc1 [Example 5-60, 2-(N-benzyl-N-(4-methoxybenzyl)sulfamoyl)benzoic acid]
- inhibition at 25 µM [1, 7]: 20 to 40%

Compound: Cc1cccc(C)c1NS(=O)(=O)c1ccc2c(c1)c(=O)n(C)c(=O)n2C [Example 6-8, N-(2,6-dimethylphenyl)-1,3-dimethyl-2,4-dioxo-1,2,3,4-tetrahydroquinazoline-6-sulfonamide]
- inhibition at 25 µM [6]: 20 to 40%

Compound: COc1cc(OC)c(/C=C2\SC(=S)N(CCC(=O)O)C2=O)c(OC)c1 [Example 6-12, (Z)-3-(4-oxo-2-thioxo-5-(2,4,6-trimethoxybenzylidene)thiazolidin-3-yl)propanoic acid]
- IC50 ([5]; Table D, read-out: hT2R14 IC50): 9.37 µM

Compound: N#C/C(=C\c1ccc2c(c1)OCO2)C(=O)Nc1nnc(-c2ccccc2)s1 [Example 6-14, (E)-3-(benzo[d][1,3]dioxol-5-yl)-2-cyano-N-(5-phenyl-1,3,4-thiadiazol-2-yl)acrylamide]
- IC50 ([5]; Table D, read-out: hT2R14 IC50): 2.91 µM

Compound: CC(=O)CSc1nc(C2CCCC2)nc2c1c(=O)n(C)c(=O)n2C [Example 6-15, 7-cyclopentyl-1,3-dimethyl-5-(2-oxopropylthio)pyrimido[4,5-d]pyrimidine-2,4(1H,3H)-dione]
- IC50 ([5]; Table D, read-out: hT2R14 IC50): 5.43 µM

Compound: Cn1c(=O)c2cc(S(=O)(=O)NC3CCCCC3)ccc2n(C)c1=O [Example 6-16, N-cyclohexyl-1,3-dimethyl-2,4-dioxo-1,2,3,4-tetrahydroquinazoline-6-sulfonamide]
- IC50 ([5]; Table D, read-out: hT2R14 IC50): 7.24 µM

Compound: Cc1c(F)cccc1NS(=O)(=O)c1ccc2c(c1)c(=O)n(C)c(=O)n2C [Example 6-18, N-(3-fluoro-2-methylphenyl)-1,3-dimethyl-2,4-dioxo-1,2,3,4-tetrahydroquinazoline-6-sulfonamide]
- IC50 ([5]; Table D, read-out: hT2R14 IC50): 0.935 µM

Compound: CCN(C)C(=O)CSc1nc(C)nc2c1c(=O)n(C)c(=O)n2C [Example 6-22, N-ethyl-N-methyl-2-(2,6,8-trimethyl-5,7-dioxo-5,6,7,8-tetrahydropyrimido[4,5-d]pyrimidin-4-ylthio)acetamide]
- IC50 ([5]; Table D, read-out: hT2R14 IC50): 0.861 µM

Compound: Cn1c(=O)c2cc(S(=O)(=O)Nc3ccc(Cl)cc3F)ccc2n(C)c1=O [Example 6-23, N-(4-chloro-2-fluorophenyl)-1,3-dimethyl-2,4-dioxo-1,2,3,4-tetrahydroquinazoline-6-sulfonamide]
- IC50 ([5]; Table D, read-out: hT2R14 IC50): 9.7 µM

Compound: Cn1c(=O)c2c(SCC(=O)NCc3ccccc3)ccnc2n(C)c1=O [Example 6-29, N-benzyl-2-(1,3-dimethyl-2,4-dioxo-1,2,3,4-tetrahydropyrido[2,3-d]pyrimidin-5-ylthio)acetamide]
- IC50 ([5]; Table D, read-out: hT2R14 IC50): 0.71 µM

Further lines, with some results ahead:

- inhibition at 25 µM [1, 7]: 40 to 60%
Compound: COc1ccc(CN(C)S(=O)(=O)c2ccc(C(=O)O)cc2)cc1 [Example 5-29, 4-(N-(4-methoxybenzyl)-N-methylsulfamoyl)benzoic acid]
- screening result against bitter receptor 63 [2]: +++ (60% to 80% inhibition = +++)

- inhibition at 25 µM [1, 7]: 20 to 40%
- inhibition at 25 µM [3, 8]: > 80%
- inhibition at 25 µM [4]: 20 to 40%
Compound: COc1ccc(CN(Cc2cccc(C(=O)O)c2)S(=O)(=O)c2ccc(C(=O)O)cc2)cc1 [Example 5-82, 3-((4-carboxy-N-(4-methoxybenzyl)phenylsulfonamido)methyl) benzoic acid]
- screening result against bitter receptor 63 [2]: ++++ (80% or greater inhibition = ++++)

- IC50 ([5]; Table C, read-out: hT2R14 IC50): 6.27 µM
Compound: COc1ccc(C2Cc3ccccc3CN2S(=O)(=O)c2ccc(C(=O)O)cc2)cc1 (stereo not shown) [Example 5-161, 4-(3-(4-methoxyphenyl)-3,4-dihydroisoquinolin-2(1H)-ylsulfonyl)benzoic acid]

- IC50 ([5]; Table C, read-out: hT2R14 IC50): 9.62 µM
Compound: COc1ccc2c(c1)CCN(S(=O)(=O)c1ccc(C(=O)O)cc1)C2c1ccccc1 (stereo not shown) [Example 5-162, 4-(6-methoxy-1-phenyl-3,4-dihydroisoquinolin-2(1H)-ylsulfonyl)benzoic acid]

- IC50 ([5]; Table C, read-out: hT2R14 IC50): 2.88 µM
Compound: COc1ccc2c(c1)C(c1ccccc1)N(S(=O)(=O)c1ccc(C(=O)O)cc1)CC2 (stereo not shown) [Example 5-163, 4-(7-methoxy-1-phenyl-3,4-dihydroisoquinolin-2(1H)-ylsulfonyl)benzoic acid]

- inhibition at 25 µM ([1]; receptor activated to EC80 with agonist, read-out: inhibition of bitter receptor 64): 20 to 40%
- inhibition at 25 µM ([3]; receptor activated to EC80 with agonist, read-out: inhibition of bitter receptor 61): 40 to 60%
- IC50 ([5]; read-out: IC50 on hT2R14 bitter receptor): 0.499 µM
- inhibition at 25 µM [6]: > 80%
Compound: N#C/C(=C\c1ccco1)C(=O)Nc1nnc(-c2ccccc2)s1 [Example 6-2, (E)-2-cyano-3-(furan-2-yl)-N-(5-phenyl-1,3,4-thiadiazol-2-yl)acrylamide]
- inhibition of bitter receptor 63 ([2]; receptor activated to EC80 with agonist): + (20% to 40% inhibition = +)

- IC50 ([5]; Table D, read-out: hT2R14 IC50): 5.38 µM
Compound: COc1cc(/C=C2\SC(=S)N(CCC(=O)O)C2=O)cc(OC)c1 [Example 6-13, (Z)-3-(5-(3,5-dimethoxybenzylidene)-4-oxo-2-thioxothiazolidin-3-yl)propanoic acid]

- IC50 ([5]; Table D, read-out: hT2R14 IC50): 1.95 µM
Compound: Cc1cc(C)c(C#N)c(NS(=O)(=O)c2ccc3c(c2)c(=O)n(C)c(=O)n3C)c1 [Example 6-17, N-(2-cyano-3,5-dimethylphenyl)-1,3-dimethyl-2,4-dioxo-1,2,3,4-tetrahydroquinazoline-6-sulfonamide]

- IC50 ([5]; Table D, read-out: hT2R14 IC50): 6.33 µM
Compound: Cc1nc2ccc(NS(=O)(=O)c3ccc4c(c3)n(C)c(=O)c(=O)n4C)cc2nc1C [Example 6-19, N-(2,3-dimethylquinoxalin-6-yl)-1,4-dimethyl-2,3-dioxo-1,2,3,4-tetrahydroquinoxaline-6-sulfonamide]

- IC50 ([5]; Table D, read-out: hT2R14 IC50): 0.292 µM
Compound: Cc1nc(SCC(=O)N2CCCCC2)c2c(=O)n(C)c(=O)n(C)c2n1 [Example 6-24, 1,3,7-trimethyl-5-(2-oxo-2-(piperidin-1-yl)ethylthio)pyrimido[4,5-d]pyrimidine-2,4(1H,3H)-dione]

- IC50 ([5]; Table D, read-out: hT2R14 IC50): 1.01 µM
Compound: Cc1nc(SCC(=O)N2CCOCC2)c2c(=O)n(C)c(=O)n(C)c2n1 [Example 6-25, 1,3,7-trimethyl-5-(2-morpholino-2-oxoethylthio)pyrimido[4,5-d]pyrimidine-2,4(1H,3H)-dione]

- IC50 ([5]; Table D, read-out: hT2R14 IC50): 0.721 µM
Compound: CCc1nc(SCC(=O)N2CCC(C)CC2)c2c(=O)n(C)c(=O)n(C)c2n1 [Example 6-26, 7-ethyl-1,3-dimethyl-5-(2-(4-methylpiperidin-1-yl)-2-oxoethylthio)pyrimido[4,5-d]pyrimidine-2,4(1H,3H)-dione]

- IC50 ([5]; Table D, read-out: hT2R14 IC50): 0.763 µM
Compound: CCOC(=O)N1CCN(C(=O)CSc2nc(CC)nc3c2c(=O)n(C)c(=O)n3C)CC1 [Example 6-27, ethyl 4-(2-(2-ethyl-6,8-dimethyl-5,7-dioxo-5,6,7,8-tetrahydropyrimido[4,5-d]pyrimidin-4-ylthio)acetyl)piperazine-1-carboxylate]

- IC50 ([5]; Table D, read-out: hT2R14 IC50): 2.38 µM
Compound: Cn1c(=O)c2c(SCC(=O)N3CCCCCC3)ccnc2n(C)c1=O [Example 6-28, 5-(2-(azepan-1-yl)-2-oxoethylthio)-1,3-dimethylpyrido[2,3-d]pyrimidine-2,4(1H,3H)-dione]

- IC50 ([5]; Table D, read-out: hT2R14 IC50): 6.23 µM
Compound: CNS(=O)(=O)c1ccc2[nH]c(=O)c(=O)[nH]c2c1 [Example 6-30, N-methyl-2,3-dioxo-1,2,3,4-tetrahydroquinoxaline-6-sulfonamide]
